Data reported in patent publication US20250040543A1, “Preservative Composition” (ARXADA AG, priority 2021, published 2025).

What was measured:
Candida albicans = experiment: MIC and Synergy Index (Kull) of two-component compositions; assay type: cell-based
Method: (§1) A wide range of concentrations were tested against Pseudomonas aeruginosa, Staphylococcus aureus, Escherichia coli, and Candda albicans.
(§2) The lowest concentration of each mixture or single compound which prevents an observable level of growth was determined to be the minimum inhibitory concentration (MIC) value.
(§3) Serial dilutions of each mixture or single compound were prepared. Micro-organisms were inoculated into media: Nutrient Broth (bacteria) or Malt Extract Broth (yeast). The final concentrations of micro-organisms in media was approximately 10^5-6 CFU/ml. The inoculated media was introduced to each of the serial dilutions at a 1:1 ratio, and incubated at 30±1° C. for 24-48 hours.
(§4) The MICs for each mixture was compared with the MIC of each single compound alone.
(§5) In this study the end point is measured by the MIC.

C. albicans = experiment: Preservation efficacy test in sterile distilled water, drop plate; assay type: cell-based, Candida albicans; details: 7 days, pH 7, Potassium Sorbate 0 ppm
Method: Yeast strains were harvested and prepared in diluent (sterile distilled water) to obtain a final concentration of 1.0×10^5 to 1.0×10^6 cfu/ml.
Preservation efficacy testing started at Day 0 (t=0). Each sample was inoculated at t=0 with a known concentration of micro-organism. Each inoculated sample was then mixed until a homogenous mixture was obtained. Inoculated samples were stored in the dark at 22.5±2.5° C. throughout the test period.
At the specified contact time of 7 days (t=7), test samples were deactivated by adding a 0.1 ml aliquot of the test sample to 0.9 ml of an appropriate neutralising broth. The solution was left for 15 minutes. Subsequent dilutions were prepared by serial dilution of 0.1 ml into 0.9 ml of neutralising broth. Bacteria were serially diluted to 10^−4, Fungi were serially diluted to 10^−3.
Each serial dilution was thoroughly mixed and 25 μl drops were aliquoted onto the surface of pre-prepared agar plates. Plates were prepared in sextupicate for each sample dilution.
The agar plates were allowed to dry, then inverted and incubated under conditions appropriate for the test microorganisms.
CFU/ml was calculated taking into account dilution factors. Colonies from the incubated plates were enumerated using the lower count limit of <10 CFU/ml and the upper count limit of >330 CFU/ml.
The lower and upper limits for drop plating were only employed on the highest and lowest dilution factor plates.
The test organisms were prepared and the method was performed according to the protocol of Example 1.

[1] = tested on: Aspergillus brasiliensis ATCC 16404; experiment: as above; assay type: cell-based; details: 7 days
Method: In the following example, the following test organisms were used: • Pseudomonas aeruginosa ATCC 9027 • Aspergillus brasiliensis ATCC 16404 [table] Mould strain spores were harvested (sterile distilled water+0.05% polysorbate 80) and treated to remove fungal hyphae. Mould strain spores were prepared in diluent (sterile distilled water) to obtain a final concentration of […]. [table] […] Each sample was inoculated at t=0 with a known concentration of micro-organism. Each inoculated sample was then mixed until a homogenous mixture was obtained. […] The solution was left for 15 minutes. Subsequent dilutions were prepared by serial dilution of 0.1 ml into 0.9 ml of neutralising broth. Bacteria were serially diluted to 10^−4, Fungi were serially diluted to 10^−3. Each serial dilution was thoroughly mixed and 25 μl drops were aliquoted onto the surface of pre-prepared agar plates. Plates were prepared in sextupicate for each sample dilution. The agar plates were allowed to dry, then inverted and incubated under conditions appropriate for the test microorganisms. CFU/ml was calculated taking into account dilution factors. […] The lower and upper limits for drop plating were only employed on the highest and lowest dilution factor plates.

Escherichia coli = experiment: MIC and Synergy Index (Kull) of two-component compositions; assay type: cell-based
Method: as §1, §2, §3, §4
(§6) Synergy was determined using the Kull equation (F. C. Kull et. al., “Mixtures of Quaternary Ammonium Compounds and Long-chain Fatty Acids as Antifungal Agents”, Appl Microbiol. 1961 November; 9(6): 538-541), which calculates a Synergy Index (SI) according the following equation:
(§7) [formula] • wherein • QA=concentration of compound A in ppm, acting alone produced an end point, • Qa=concentration of compound A in ppm, in the mixture, which produced an end point, • QB=concentration of compound B in ppm, acting alone produced an end point, and • Qb=concentration of compound B in ppm, in the mixture, which produced an end point;
as §5

Staphylococcus aureus = experiment: as above; assay type: cell-based; details: Staphylococcus aureus, butyl levulinate alone, or its concentration in the mixture with Sodium benzoate; read-out: MIC (ppm) to inhibit growth: Butyl levulinate
Method: as §1, §2, §3, §4, §6, §7, §5

Pseudomonas aeruginosa = experiment: as above; assay type: cell-based
Method: as §1, §2, §3, §4, §6, §7, §5

[2] = butyl levulinate alone, or its concentration in the mixture with DHA
[3] = butyl levulinate alone, or its concentration in the mixture with Sodium pyrithione

MIC (Candida albicans; Candida albicans, butyl levulinate alone, or its concentration in the mixture with Sodium benzoate, read-out: MIC (ppm) to inhibit growth: Butyl levulinate): 6250 µg/mL
MIC (ppm) to inhibit growth: Butyl levulinate (Candida albicans; butyl levulinate alone, or its concentration in the mixture with BIT): 6250 ppm
MIC (ppm) to inhibit growth: Butyl levulinate (Candida albicans; [2]): 6250 ppm
MIC (ppm) to inhibit growth: Butyl levulinate (Candida albicans; butyl levulinate alone, or its concentration in the mixture with HPNO): 6250 ppm
MIC (ppm) to inhibit growth: Butyl levulinate (Candida albicans; butyl levulinate alone, or its concentration in the mixture with PHMB): 6250 ppm
MIC (ppm) to inhibit growth: Butyl levulinate (Candida albicans; butyl levulinate alone, or its concentration in the mixture with Potassium Sorbate): 6250 ppm
MIC (ppm) to inhibit growth: Butyl levulinate (Candida albicans; [3]): 6250 ppm
MIC (Escherichia coli; Escherichia coli, butyl levulinate alone, or its concentration in the mixture with Sodium benzoate, read-out: MIC (ppm) to inhibit growth: Butyl levulinate): 3120 µg/mL
MIC (ppm) to inhibit growth: Butyl levulinate (Escherichia coli; [2]): 3125 ppm
MIC (Staphylococcus aureus): 25000 µg/mL
MIC (Pseudomonas aeruginosa; Pseudomonas aeruginosa, butyl levulinate alone, or its concentration in the mixture with Lactic Acid, read-out: MIC (ppm) to inhibit growth: Butyl levulinate): 6250 µg/mL
MIC (ppm) to inhibit growth: Butyl levulinate (Pseudomonas aeruginosa; butyl levulinate alone, or its concentration in the mixture with MGDA): 6250 ppm
MIC (ppm) to inhibit growth: Butyl levulinate (Pseudomonas aeruginosa; [3]): 6250 ppm
Compound: CCCCOC(=O)CCC(C)=O [Butyl Levulinate, butyl levulinate]
Log reduction (C. albicans; Butyl Levulinate 500 ppm): 0.11
Log reduction (C. albicans; Butyl Levulinate 1000 ppm): 0.22
Log reduction (C. albicans; Butyl Levulinate 1500 ppm): 0.11
Log reduction (C. albicans; Butyl Levulinate 2000 ppm): −0.11
Log reduction (C. albicans; Butyl Levulinate 2500 ppm): 0.18
Log reduction ([1]; pH 7, Butyl Levulinate 500 ppm, IPBC 0 ppm): 0.61
Log reduction ([1]; pH 7, Butyl Levulinate 500 ppm, Potassium Sorbate 0 ppm): 0.10
Log reduction ([1]; pH 7, Butyl Levulinate 500 ppm, Sodium Benzoate 0 ppm): 1.90
Log reduction ([1]; pH 7, Butyl Levulinate 1000 ppm, IPBC 0 ppm): 0.60
Log reduction ([1]; pH 7, Butyl Levulinate 1000 ppm, Potassium Sorbate 0 ppm): 0.10
Log reduction ([1]; pH 7, Butyl Levulinate 1000 ppm, Sodium Benzoate 0 ppm): 1.82
Log reduction ([1]; pH 7, Butyl Levulinate 1500 ppm, IPBC 0 ppm): 0.74
Log reduction ([1]; pH 7, Butyl Levulinate 1500 ppm, Potassium Sorbate 0 ppm): 0.31
Log reduction ([1]; pH 7, Butyl Levulinate 1500 ppm, Sodium Benzoate 0 ppm): 1.85
Log reduction ([1]; pH 7, Butyl Levulinate 2000 ppm, IPBC 0 ppm): 0.70
Log reduction ([1]; pH 7, Butyl Levulinate 2000 ppm, Potassium Sorbate 0 ppm): −0.01
Log reduction ([1]; pH 7, Butyl Levulinate 2000 ppm, Sodium Benzoate 0 ppm): 2.01
Log reduction ([1]; pH 7, Butyl Levulinate 2500 ppm, IPBC 0 ppm): 0.72
Log reduction ([1]; pH 7, Butyl Levulinate 2500 ppm, Potassium Sorbate 0 ppm): 0.18
Log reduction ([1]; pH 7, Butyl Levulinate 2500 ppm, Sodium Benzoate 0 ppm): 1.80
Log reduction ([1]; pH 8, Butyl Levulinate 500 ppm, Sodium Benzoate 0 ppm): 0.64
Log reduction ([1]; pH 8, Butyl Levulinate 1000 ppm, Sodium Benzoate 0 ppm): 0.36
Log reduction ([1]; pH 8, Butyl Levulinate 1500 ppm, Sodium Benzoate 0 ppm): 0.36
Log reduction ([1]; pH 8, Butyl Levulinate 2000 ppm, Sodium Benzoate 0 ppm): 0.38
Log reduction ([1]; pH 8, Butyl Levulinate 2500 ppm, Sodium Benzoate 0 ppm): 0.33
